The source made the active and inactive calls. The calls are words filed in the database; no cut-off is given here. Where a SMILES comes first, the peptide text is derived from it.

Data set [1] is described as follows: Antioxidant activity assessed as trolox equivalent of ABTS radical scavenging activity measured for 6 mins. The format is functional.
Data set [2] can be described thus: Antioxidant activity assessed as trolox equivalent of AAPH radical scavenging activity preincubated for 15 mins followed by 10 sec incubation under shaking condition and measured every minute for 2 hrs by ORAC fluorescence based microplate reader analysis. As to conditions: time 8110.0 sec. The format is functional.
Data set [3] in a line: Hemolytic activity in human red blood cell assessed as cell membrane disruption at 12.5 to 400 ug/ml incubated for 1 hrs by microplate reader analysis. As to conditions: erythrocyte, dose 12.5-400 µg/ml. The format is toxicity, cell-based.
The subject of another data set is Erythrocyte. Kind of data set: Protection against AAPH-induced hemolysis in human RBC at 25 to 400 ug/ml preincubated with compound for 20 mins followed bu AAPH addition and measured after 3 hrs by spectrophotometric analysis. The format is functional, cell-based. As to conditions: dose 25-400 µg/ml, time 200.0 min.
The nature of data set [4]: Protection against AAPH-induced hemolysis in human RBC at 50 to 100 ug/ml preincubated with compound for 20 mins followed bu AAPH addition and measured after 3 hrs by spectrophotometric analysis relative to control. The format is functional, Erythrocyte. The settings on record: dose 50-100 µg/ml; time 200 min; 3.333 h; at 50 to 100 µg/mL.
Data set [5] in a line: Cytotoxicity against human SK-N-BE(2) cells assessed as reduction in cell viability incubated for 24 hrs by MTT assay. The format is toxicity, cell-based. (Tetrazolium assays rely on reduction of a dye to a coloured formazan, in cell work by metabolically active cells.)
Data set [6] in a line: Antioxidant activity assessed as protection against AAPH-induced DNA degradation in to linear form incubated for 1 hrs by SYBR dye based electrophoresis. The format is functional.
For data set [7], the system named is N2a. Kind of data set: Antioxidant activity in arsenite-induced mouse Neuro2a cells assessed as reduction in Nrf2 protein level at 100 uM incubated for 3 hrs by Western blot analysis. The format is functional, cell-based.
For data set [8], the system named is N2a. Kind of data set: Antioxidant activity in arsenite-induced mouse Neuro2a cells assessed as increase in SOD level at 100 uM incubated for 3 hrs by Western blot analysis. The format is functional, cell-based. (In general: In western blotting, separated proteins are transferred to a membrane and probed.)
The test system of data set [9] is SK-N-BE(2). Kind of data set: Antioxidant acitivity against PMA-stimulated human SK-N-BE(2) cells assessed as reduction in PMA-stimulated ROS level at 50 to 100 uM incubated for 60 mins by DCFH-DA staining based flow cytometric analysis. As to conditions: dose 50-100 µM. The format is functional, cell-based. For orientation: A flow cytometer gives signals particle by particle.

Data set [10] deals with SK-N-BE(2). Kind of data set: Antioxidant acitivity against PMA-stimulated human SK-N-BE(2) cells assessed as reduction in PMA-stimulated RNS level at 50 uM incubated for 60 mins by DCFH-DA staining based flow cytometric analysis. The format is functional, cell-based.

With `CC[C@H](C)[C@H](NC(=O)[C@H](Cc1c[nH]c2ccccc12)NC(=O)[C@@H]1CCCN1C(=O)[C@@H](N)Cc1ccccc1)C(=O)N[C@H](C(=O)N[C@@H](CO)C(N)=O)[C@@H](C)CC` (H-FPWIIS-NH2), the Activity was 796 µM/g in data set [1], 674 µM/g in data set [2], “Non-Toxic” in data set [3] and >75% in data set [4]. Moreover, the outcome (in the data set with Erythrocyte; in data set [6]; in the data set on N2a [7]; in the data set on SK-N-BE(2) [9]; with SK-N-BE(2) [10]) was Active. The CC50 (usually the concentration that lowers cell viability or growth by half) at 24 h in data set [5] amounted to 1.73 mM. Also, in the data set with N2a [8], the result was inactive.

The values above are taken from ChEMBL document CHEMBL5236629, “Antioxidant and Neuroprotective Effects of the First Tryptophyllin Found in Snake Venom (Bothrops moojeni)” (J Nat Prod, 2022).
